Experimental data taken from patent US12054562B2, “Cell-permeable inhibitory agent and methods of use thereof in treatment of cognitive and mood disorders” (priority 2015, dated 2024).

Test system: α5GABAA receptors
Assay: Surface biotinylation assay of α5 subunit in ex vivo brain slices after i.p. peptide
Design: species or system mouse
Settings: peptide 20 mg/kg, etomidate-treated adult male mice
Description: We next asked whether injection of inhibitory peptide, when administered to mice in vivo by I.P. injection, reduced the level of α5GABAA receptors expressed in the hippocampus. To test whether the peptide reduces α5GABAA receptor cell-surface expression in vivo, we took advantage of a mouse model that we developed recently (Zurek, et al., 2014), in which up-regulation of α5GABAA receptor cell surface expression causes memory deficits. Adult mice (22-25 g) were treated with etomidate (8 mg/kg, i.p.), and sacrificed 24 hrs later according to a protocol approved by the Animal Care Committee of the University of Toronto. The hippocampi were collected and subject to experiments. We first measured the level of radixin phosphorylation, because radixin phosphorylation is required for the recruitment of α5GABAA receptors to extrasynaptic sites of the neurons (Loebrich et al., 2006; Hausrat et al., 2015). The antibody against threonine at 564 of radixin, which is specific for radixin phosphorylation involving α5GABAA receptor extra-synaptic trafficking, was used for these studies (Choii et al., 2015; Hausrat et al., 2015). […] We next examined whether the inhibitory peptide prevented α5GABAA receptor from trafficking to surface membrane in vivo by studying ex vivo brain slices. […]

NYFTKRGWAWDGKKAL [inhibitory peptide] was tested, and the “expression of α5GABAA receptors on the cell surface” value was “selectively prevented” and the “α5GABAA total protein production” value was “did not change”.
